Test results: ChEMBL document CHEMBL1201862, “PubChem BioAssay data set” (2004)
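Method: 48-hour compound exposure of cells in 96-well plates, five concentrations, linear interpolation of endpoints. Here, GI50 denotes the concentration required for 50% inhibition of growth.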 Calls of active or inactive are those of the source. No stated cut-off is given here; in the data, active = GI50 up to about 1.1 µM and inactive = higher.

Experiments:
Experiment in all cases: DTP human tumour cell line panel, 48 h
SW-620 = test system: SW-620
HT-29 = test system: HT-29
CCRF-CEM = test system: CCRF-CEM
OVCAR-5 = test system: OVCAR-5
RXF 393 = test system: RXF 393
KM12 = test system: KM12
NCI-H460 = test system: NCI-H460
BT-549 = test system: BT-549
MDA-N = test system: MDA-N
UO-31 = test system: UO-31
NCI-H23 = test system: NCI-H23
HL-60 = test system: HL-60
RPMI-8226 = test system: RPMI-8226
SK-MEL-5 = test system: SK-MEL-5
MDA-MB-435 = test system: MDA-MB-435
OVCAR-8 = test system: OVCAR-8
HOP-62 = test system: HOP-62
A498 = test system: A498
NCI-H226 = test system: NCI-H226
MDA-MB-231 = test system: MDA-MB-231

Row | SMILES | GI50 (SW-620) | GI50 (HT-29) | GI50 (CCRF-CEM) | GI50 (OVCAR-5) | GI50 (RXF 393) | GI50 (KM12) | GI50 (NCI-H460) | GI50 (BT-549) | GI50 (MDA-N) | GI50 (UO-31) | GI50 (NCI-H23) | GI50 (HL-60) | GI50 (RPMI-8226) | GI50 (SK-MEL-5) | GI50 (MDA-MB-435) | GI50 (OVCAR-8) | GI50 (HOP-62) | GI50 (A498) | GI50 (NCI-H226) | GI50 (MDA-MB-231)
1 | O=c1ccc2ccc(OP(=O)(O)O)cc2o1 | > 100 µM (inactive) | > 100 µM (inactive) | > 100 µM (inactive) | > 100 µM (inactive) | > 100 µM (inactive) | > 100 µM (inactive) | > 100 µM (inactive) | > 100 µM (inactive) | > 100 µM (inactive) | > 100 µM (inactive) | > 100 µM (inactive) | > 100 µM (inactive) | > 100 µM (inactive) | > 100 µM (inactive) | > 100 µM (inactive) | > 100 µM (inactive) | > 100 µM (inactive) | > 100 µM (inactive) | > 100 µM (inactive) | > 100 µM (inactive)
2 | O=C(c1nc2ccc([N+](=O)[O-])cc2nc1O)C(O)c1ccc2c(c1)OCO2 (stereo not given) | > 100 µM (inactive) | > 100 µM (inactive) | 83.9 µM (inactive) | > 100 µM (inactive) | > 100 µM (inactive) | > 51.2 µM (inactive) | > 100 µM (inactive) | > 100 µM (inactive) | 70.8 µM (inactive) | > 100 µM (inactive) | > 100 µM (inactive) | > 39.1 µM (inactive) | 55.5 µM (inactive) | 45.7 µM (inactive) | 93.1 µM (inactive) | > 100 µM (inactive) | > 100 µM (inactive) | > 100 µM (inactive) | > 100 µM (inactive) | > 100 µM (inactive)
3 | O=C1C=CC(=O)c2c1cc1ccccc1c2O | 1.86 µM (inactive) | 7.53 µM (inactive) | 0.391 µM (active) | 18.4 µM (inactive) | 2.11 µM (inactive) | 13.2 µM (inactive) | 19.1 µM (inactive) | 9.38 µM (inactive) | 5.26 µM (inactive) | 3.15 µM (inactive) | 13 µM (inactive) | 0.628 µM (active) | 2.43 µM (inactive) | 12.1 µM (inactive) | 6.37 µM (inactive) | 2.58 µM (inactive) | 16.7 µM (inactive) | 13.5 µM (inactive) | 20.1 µM (inactive) | 2.04 µM (inactive)
4 | COc1cc(C2c3cc4c(cc3OC(NC3CCCCC3)C2C)OCO4)cc(OC)c1OC (stereo not given) | 0.34 µM (active) | 0.383 µM (active) | 0.422 µM (active) | 3.03 µM (inactive) | 0.258 µM (active) | 0.407 µM (active) | 0.488 µM (active) | 0.649 µM (active) | 0.188 µM (active) | 0.515 µM (active) | 0.499 µM (active) | 0.271 µM (active) | 0.403 µM (active) | 0.362 µM (active) | 0.19 µM (active) | 0.845 µM (active) | 2.38 µM (inactive) | 0.681 µM (active) | 1.52 µM (inactive) | 0.393 µM (active)
5 | CC(C)CC(NC(=O)OC(C)(C)C)C(=O)Nc1ccc(Nc2nc(F)nc(-c3c4ccccc4cn3C)n2)cc1 (stereo not given) | > 36 µM (inactive) | 23.1 µM (inactive) | 33.3 µM (inactive) | > 100 µM (inactive) | 22.2 µM (inactive) | 12.6 µM (inactive) | > 75 µM (inactive) | > 100 µM (inactive) | > 100 µM (inactive) | 44.9 µM (inactive) | 62.5 µM (inactive) | 3.94 µM (inactive) | 3.07 µM (inactive) | > 100 µM (inactive) | > 100 µM (inactive) | 98.6 µM (inactive) | 12.7 µM (inactive) | 98.6 µM (inactive) | > 100 µM (inactive) | 66.1 µM (inactive)
6 | CCCCCCCCOC1C(O)C(O)C(O)C(O)C12CO2 (stereo not given) | 45.4 µM (inactive) | 49.5 µM (inactive) | 28.3 µM (inactive) | > 10 µM (inactive) | 29 µM (inactive) | 43.9 µM (inactive) | 45.4 µM (inactive) | 37.6 µM (inactive) | 32.4 µM (inactive) | 78 µM (inactive) | 16.1 µM (inactive) | 42 µM (inactive) | 50.2 µM (inactive) | > 10 µM (inactive) | 29.8 µM (inactive) | 62.7 µM (inactive) | 44.6 µM (inactive) | > 100 µM (inactive) | 86.1 µM (inactive) | 39.8 µM (inactive)
7 | C=COC(=O)N[C@H]1CCc2cc(OC)c(OC)c(OC)c2-c2ccc(SC)c(=O)cc21 | < 0.0286 µM (active) | < 0.01 µM (active) | < 0.01 µM (active) | 0.173 µM (active) | < 0.0176 µM (active) | < 0.01 µM (active) | < 0.01 µM (active) | < 0.01 µM (active) | < 0.01 µM (active) | < 0.048 µM (active) | < 0.01 µM (active) | < 0.01 µM (active) | < 0.01 µM (active) | < 0.01 µM (active) | < 0.01 µM (active) | 0.0133 µM (active) | < 0.0157 µM (active) | < 0.01 µM (active) | 0.0372 µM (active) | < 0.01 µM (active)
8 | O=c1cc(O)c2ccccc2o1 [4-HYDROXYCOUMARINS] | > 100 µM (inactive) | > 100 µM (inactive) | > 100 µM (inactive) | > 100 µM (inactive) | > 100 µM (inactive) | > 100 µM (inactive) | > 100 µM (inactive) | > 100 µM (inactive) | > 100 µM (inactive) | > 100 µM (inactive) | > 100 µM (inactive) | > 100 µM (inactive) | > 100 µM (inactive) | > 100 µM (inactive) | > 100 µM (inactive) | > 100 µM (inactive) | > 100 µM (inactive) | > 100 µM (inactive) | > 100 µM (inactive) | > 100 µM (inactive)
9 | COc1ccc(/C=C2\NC(=S)N(/C=C3\C(=O)Oc4ccccc4C3=O)C2=O)cc1OC | > 100 µM (inactive) | > 100 µM (inactive) | 45 µM (inactive) | > 100 µM (inactive) | 77.6 µM (inactive) | 90.2 µM (inactive) | > 100 µM (inactive) | > 100 µM (inactive) | > 100 µM (inactive) | 54.6 µM (inactive) | > 100 µM (inactive) | 22.4 µM (inactive) | > 100 µM (inactive) | > 100 µM (inactive) | > 100 µM (inactive) | > 100 µM (inactive) | > 100 µM (inactive) | 54 µM (inactive) | > 100 µM (inactive) | > 100 µM (inactive)
10 | COC(=O)CCC(C)[C@H]1CCC2C3C(C[C@H](OC(C)=O)[C@@]21C)[C@@]1(C)CCC2(C[C@H]1C[C@H]3OC(C)=O)OOC1(CCCC1)OO2 (stereo not given in full) | 51.9 µM (inactive) | 34.4 µM (inactive) | 7.89 µM (inactive) | > 100 µM (inactive) | 63.1 µM (inactive) | 23.3 µM (inactive) | 6.82 µM (inactive) | 46 µM (inactive) | 32.4 µM (inactive) | 10.1 µM (inactive) | 9.18 µM (inactive) | 5.02 µM (inactive) | 2.47 µM (inactive) | 20.2 µM (inactive) | 29.9 µM (inactive) | 34.4 µM (inactive) | 10.3 µM (inactive) | > 100 µM (inactive) | 27.9 µM (inactive) | 43.3 µM (inactive)
11 | CC(C)c1cc(C(C)C)c(P2(=O)CC3C(Cl)(Cl)C3(C)C2)c(C(C)C)c1 (stereo not given) | 7.55 µM (inactive) | 9.33 µM (inactive) | 2.24 µM (inactive) | 16.3 µM (inactive) | 12.9 µM (inactive) | 10.6 µM (inactive) | 11.5 µM (inactive) | 13.7 µM (inactive) | 10.9 µM (inactive) | 1.86 µM (inactive) | 9.55 µM (inactive) | 4.2 µM (inactive) | 3.24 µM (inactive) | 10.1 µM (inactive) | 9.73 µM (inactive) | 7.67 µM (inactive) | 10.3 µM (inactive) | 13.8 µM (inactive) | 16.7 µM (inactive) | 11.4 µM (inactive)
12 | COC(=O)c1ccccc1C1CN=NC12Cc1c(C)cccc1C2=O (stereo not given) | > 100 µM (inactive) | > 100 µM (inactive) | > 100 µM (inactive) | 71.8 µM (inactive) | > 100 µM (inactive) | > 100 µM (inactive) | > 100 µM (inactive) | > 100 µM (inactive) | > 100 µM (inactive) | 73.1 µM (inactive) | > 100 µM (inactive) | 87.3 µM (inactive) | > 100 µM (inactive) | 90.2 µM (inactive) | > 100 µM (inactive) | > 100 µM (inactive) | > 100 µM (inactive) | > 100 µM (inactive) | > 100 µM (inactive) | > 100 µM (inactive)
13 | COc1nc(C(Cl)(Cl)Cl)c(Cl)c(OC)c1Cl [PENCLOMEDINE] | 39.4 µM (inactive) | 14.6 µM (inactive) | 32.5 µM (inactive) | 42.9 µM (inactive) | 36.7 µM (inactive) | 33.7 µM (inactive) | 21.9 µM (inactive) | 38 µM (inactive) | 26.9 µM (inactive) | 40.8 µM (inactive) | 42.2 µM (inactive) | 7.46 µM (inactive) | 24.1 µM (inactive) | 22.5 µM (inactive) | 42.5 µM (inactive) | 21.2 µM (inactive) | 12.1 µM (inactive) | 52.6 µM (inactive) | 34.4 µM (inactive) | 38.3 µM (inactive)
14 | Cc1cccc(-c2nc3ccc([N+](=O)[O-])cc3c(=O)o2)c1 | 73.3 µM (inactive) | 62.4 µM (inactive) | 27.8 µM (inactive) | > 100 µM (inactive) | > 100 µM (inactive) | 90.6 µM (inactive) | 51.8 µM (inactive) | 51.4 µM (inactive) | > 100 µM (inactive) | 43.8 µM (inactive) | 72.8 µM (inactive) | 59.7 µM (inactive) | 45.6 µM (inactive) | > 100 µM (inactive) | 89.7 µM (inactive) | 46.7 µM (inactive) | 46.1 µM (inactive) | 28.6 µM (inactive) | 71.6 µM (inactive) | > 100 µM (inactive)
